Type in all cases: in vivo
A short description of series [1]: Acute toxicity, oral, rat. The conditions noted are these: in vivo, rat, read-out: DL50. How it is done:
(§1) Acute toxicity was determined orally in the Wister rat and in the Swiss mouse of both sexes.
(§2) The animals were kept fasting for at least 12 hours before the tests but whith free access to water. The compound was suspended homogeneously in gum arabic mucilage and was administered, at the set doses, in a volume of 40 ml/kg by means of a gastro-oesophageal probe.
(§3) Each dose was tested on ten animals, of which five were male and five female. The weight of the rats varied from 300 to 350 g for the males and from 220 g to 250 g for the females. The weight of the mice, of both sexes, varied from 28 g to 35 g.
(§4) The observation lasted ten days.

Another series concerns Wister rat. The series is described as follows: Acute toxicity, oral, rat. As for the experimental part: as §1, §2, §3, §4
Series [2] is described as follows: Chronic (subacute) toxicity, 28 days oral, male rat. The settings on record: rat, in vivo, 4 weeks. How it is done:
(§5) These tests were carried out on the male Wistar rat having a body weight which varied from 188 to 228 grams. The animals were randomly divided into groups of ten each, and treated in the following manner:
(§6) Group A--CONTROLS--10% gum arabic, 10 ml/kg/day by oral administration using a gastro-oesophageal probe for 28 consecutive days;
(§7) Group B--CM/1 20 mg/10 ml of 10% gum arabic per kg/day by oral administration using a gastro-oesophageal probe for 28 consecutive days;
(§8) Group C--CM/1 40 mg/10 ml of 10% gum arabic per kg/day by oral administration using a gastro-oesophageal probe for 28 consecutive days.
(§9) In all the groups tested, the body weight was measured daily at the moment of administration, and recorded at regular intervals.
(§10) The general conditions of food and water consumption were noted, and any mortality and the symptomatology were recorded.
(§11) Between the 25th and 27th day of treatment, all the tested groups were kept in suitable metabolic cages (single) in order to collect the urine spontaneously ejected, and thus determine its composition by reactive Bili-Labstix strips of Ames.
(§12) Between the 27th and 29th day of treatment, all the animals, which has fasted for 12 hours but with free access to water, were sacrificed by decapitation (a small animal decapitator of the Amer. Instr. Corp. was used). The following were determined from the blood collected from the trunk:
(§13) azotemia (Dell'Aira, in King E.--Microanalisi nella Biochimica medica. II Pensiero Sci. Ed., ROMA 1951);
(§14) glycemia (Price D. J.--Analyst 92; 198, 1967);
(§15) total bilirubinemia (Jendrassik L. and Grof. P.--Biochem. Z. 297;81, 1938);
(§16) total cholesterolemia (Huan T. C., Chen C. P., Wefler V. and Battey A.--Anal. Chem. 33; 1405, 1961);
(§17) total lipidemia (Zollner N. and Kirsch K.--Z. ges. Exp. Med. 135; 545, 1962)
(§18) SGOT and SGPT transaminase (Reitman S. and Frankel E.--Amer J. Clin. Path. 28;56, 1957);
(§19) total protidemia by the biuret colorimetric method, using lyphilised Hyland serum as standard;
(§20) sodaemia and potassaemia using the photometric method.
(§21) A macroscopic examination was also made of the main organs in order to note any alterations or tumor masses which could indicate neoplasia. Particular attention was given to the examination of the stomach and intestine of the rats treated with the highest dose, in order to determine the degree of local tolerability to repeated administration of CM/1 over 28 days by the gastro-enteric mucosa.
(§22) For this purpose, the stomach and intestine were subjected to macro and microscopic examination, these being sectioned along the greater curvature (stomach) and along the major axis (intestine), washed with tepid physiological solution extended and carefully observed with a magnifying lens, in order to note hyperemia zones with ulcerations or with other trophic alterations of the mucosa.

In the next series the test system is male Wistar rat. The series is described as above. The conditions noted are these: 20 and 40 mg/kg/day oral, 28 days. As for the experimental part:
as §5, §6, §7, §8, §9, §10, §11, §12, §13, §14, §15, §16, §17, §18, §19, §20, §21, §22

We go through one molecule from patent publication US4338331A, “Isoindoline derivative and a therapeutic composition thereof” (priority 1979, dated 1982).

Each structure is given as a SMILES string.

In the case of `CC1c2ccccc2CN1NC(=O)c1ccc(Cl)c(S(N)(=O)=O)c1` (stereo not drawn) [CM/1, 1-methyl-2-(3'-sulphamyl-4'-chlorobenzamido)-isoindoline], the LD50 at 240 h in series [1] was greater than 2500 mg/kg. Besides, the DL50 in the series with Wister rat (Wister rat, both sexes, 10 days observation) is listed as > 2,500 mg/kg. Moreover, the “deaths / toxic symptomatology” value in the series on Wister rat (rat, individual doses up to 2,500 mg/kg) is on record as “No deaths were observed either in the rat or in the mouse, nor was any particular toxic symptomatology found”. Further, the selectivity ratio at 672 h in series [2] (daily doses up to 40 mg/kg oral, read-out: tolerated doses relative to the maximum daily human therapeutic dose) amounted to 560. The NOAEL at 672 h in series [2] (oral, read-out: well tolerated daily dose (subacute toxicity)) was no less than 40 mg/kg/day. Besides, in the series on male Wistar rat, the “alteration in the organs examined or in the gastro-enteric mucosa” value is reported as “No alteration was noted”; the “behaviour and food consumption” value is listed as “Behaviour was normal, as was food consumption”; the “deaths during the 28 days of treatment” value is on record as “no deaths were recorded”; the sodaemia and potassaemia result was “slight reduction in the potassaemia and sodaemia”. Besides, the symptomatology result in the series with male Wistar rat is on record as “No particular symptomatology was noted”. Moreover, in the series with male Wistar rat (collected days 25-27, versus controls), the urine composition result was “in practice similar for the controls and treated animals”. Moreover, the hematic biochemical constants result with male Wistar rat (except sodaemia and potassaemia) is recorded as “all within the range of normal values for the rat of this stock”. In the series with male Wistar rat (versus controls), the body weight result is listed as “in practice similar to the data for the controls”; the hemograms result was “all normal, without any significant differences between the controls and treated animals”; the water consumption result is “slightly greater than the controls”.
